Patent EP2712863B1, “Novel inhibitors of bacterial biofilms and related methods” (Sequoia Sciences, Inc., priority 2012, dated 2014)
Values after ≈ are worked out from the molar mass of the structure shown. Like-named read-outs stand apart in the source and are kept apart here.

Columns and labels:
[1] = test system: P. aeruginosa; test: Biofilm growth assay (spreading biofilm on semi-solid agar); assay type: cell-based; conditions: Pseudomonas aeruginosa
Excerpt: (§1) "Biofilm Growth Assay" refers to an assay performed on semi-solid agar surface where the bacteria collectively move out from an inoculation point. To those skilled in the art, the act of bacteria collectively moving out from an inoculation point on a semi-solid surface may be referred to as swarming or a spreading biofilm. (Anderson, et al Microbiology, 2003, 149, 37-46; Daniels, et al. FEMS Microbiology Reviews, 2004, 28, 261-289). The procedure to perform this assay is described in detail in the Examples. This type of surface motility by bacteria has been reported in the literature by those skilled in the art.
(§2) The biofilm growth assay was carried out to measure swarming or biofilm spreading on semi-solid agar media in round plates (for example, 100 × 15 mm), also referred to as Petri dishes. For E. coli, the plates contained LB medium with 0.6% agar and 0.5% glucose. P. aeruginosa plates were made with M8 agar supplemented with 0.2% glucose, 100 µM CaCl2, 1 mM MgSO4, and 0.5% Casamino acids. The agar plates of this assay consisted of 0.4% to 0.7% agar (Bacto or Noble agar), although other media may also be used as described in the literature and known to those skilled in the art. Test compounds at the desired concentration were added to the cooled, autoclaved media. Portions of the media were then poured into the plates (20 mL/plate), and the plates allowed to dry at room temperature for approximately 3 to 4 hours. Alternatively, however, plates may be dried in a laminar flow hood for approximately fifteen to twenty minutes. Overnight cultures were grown in a 37°C shaker in LB (E. coli) or TSB (P. aeruginosa). Plates were inoculated by placing 5 µL of the appropriate overnight culture in the centers of the plates. The plates then were incubated overnight at 37°C. The area of the zone of spreading bacteria was then measured and replicates are averaged. Percent inhibition was calculated as 100 × (area without compound - area with compound)/(area without compound). An active compound was considered that which reduces the area of the spreading biofilm compared to negative controls by greater than or equal to 85%. The values shown in Table 1 are the concentrations of compounds (µg/ml) tested in the biofilm growth assay that reduce the area of the spreading biofilm compared to negative controls by greater than or equal to 85% unless noted differently in Table 1. A > ("greater than" symbol) as used in Table 1 is well understood to those skilled in the art as an indication that the listed concentration was not effective at this concentration.
(§3) All of the compounds shown in Tables 2, 3, 4, and 5, below, were prepared semi-synthetically from oleanolic acid, except for Compounds 2 and 3. Compound 2 was prepared from ursolic acid. Compound 3 was prepared from hederagenin, but could also be prepared from an oleanolic acid analog with a hydroxyl at C23 or C24. These compounds were tested in the spreading biofilm assay according to the methods detailed in Example I, above. The values shown in Tables 2, 3, 4, and 5 are the concentrations of compounds tested in the biofilm growth assay that reduce the area of the spreading biofilm compared to negative controls by greater than or equal to 85%. Table 2. Compound 1 and its Analogs and their inhibitory concentrations in the biofilm growth assay as detailed in Example I, above

[2] = test system: E. coli; test: as above; assay type: cell-based; conditions: Escherichia coli
Excerpt: as §1, §2, §3

[3] = Table 4, concentration that reduces the area of the spreading biofilm by >= 85%, read-out: P. aeruginosa
[4] = Table 4, concentration that reduces the area of the spreading biofilm by >= 85%, read-out: E. coli
[5] = Table 1, concentration that reduces the area of the spreading biofilm vs negative controls by >= 85%, > means not effective at this concentration, read-out: P. aeruginosa
[6] = Table 1, concentration that reduces the area of the spreading biofilm vs negative controls by >= 85%, > means not effective at this concentration, read-out: E. coli
[7] = Table 3, concentration that reduces the area of the spreading biofilm by >= 85%, read-out: P. aeruginosa
[8] = Table 3, concentration that reduces the area of the spreading biofilm by >= 85%, read-out: E. coli

Cn1nc([C@]23CCC(C)(C)C[C@H]2C2=CCC4[C@@]5(C)Cc6c(n[nH]c6N)C(C)(C)[C@@H]5CC[C@@]4(C)[C@]2(C)CC3)cc1N (stereo partly drawn) [Compound 72, (4aS,6aS,6bR,8aR,13aR,15bS)-4a-(5-Amino-1-methyl-1H-pyrazol-3-yl)-2,2,6a,6b,9,9,13a-heptamethyl-2,3,4,4a,5,6,6a,6b,7,8,8a,9,11,13,13a,13b,14,15b-octadecahydro-1H-chryseno[1,2-f]indazol-12-amine]
IC85 [1, 3]: 1 µg/mL (≈ 1.84 µM)
IC85 [2, 4]: > 2 µg/mL

CC1(C)CC[C@]2(C(=O)Nc3nnn[nH]3)CC[C@]3(C)C(=CCC4[C@@]5(C)Cc6c(n[nH]c6N)C(C)(C)C5CC[C@]43C)C2C1 (stereo partly drawn) [Compound 61, (4aS,6aS,6bR,13aR)-12-Amino-2,2,6a,6b,9,9,13a-heptamethyl-N-(1H-tetrazol-5-yl)-2,3,4,4a,5,6,6a,6b,7,8,8a,9,11,13,13a,13b,14,15b-octadecahydro-1H-chryseno[1,2-f]indazole-4a-carboxamide]
IC85 ([1]; read-out: P. aeruginosa (µg/ml)): 0.5 µg/mL (≈ 0.892 µM)
IC85 ([2]; read-out: E. coli (µg/ml)): 0.5 µg/mL (≈ 0.892 µM)

C=C(C)[C@@H]1CC[C@]2(C)CC[C@]3(C)[C@H](CC[C@@H]4[C@@]5(C)CC[C@H](O)C(C)(C)[C@@H]5CC[C@]43C)[C@@H]12 [Lupeol, reference compound]
IC85 [1, 5]: > 16 µg/mL
IC85 [2, 6]: > 8 µg/mL

CC1(C)CC[C@]2(C(=O)O)CC[C@]3(C)C(=C(c4ccc(N5CCNCC5)cc4)CC4[C@@]5(C)Cc6c(n[nH]c6N)C(C)(C)C5CC[C@]43C)C2C1 (stereo partly drawn) [Compound 50, (4aS,6aS,6bR,13aR)-12-Amino-2,2,6a,6b,9,9,13a-heptamethyl-15-(4-(piperazin-1-yl)phenyl)-2,3,4,4a,5,6,6a,6b,7,8,8a,9,11,13,13a,13b,14,15b-octadecahydro-1H-chryseno[1,2-f]indazole-4a-carboxylic acid]
IC85 [1, 7]: 2 µg/mL (≈ 3.06 µM)
IC85 [2, 8]: 1 µg/mL (≈ 1.53 µM)

Cc1c([C@]23CCC(C)(C)CC2C2=CCC4[C@@]5(C)Cc6c(n[nH]c6N)C(C)(C)C5CC[C@@]4(C)[C@]2(C)CC3)n[nH]c1O (stereo partly drawn) [Compound 82, 3-((4aS,6aS,6bR,13aR)-12-Amino-2,2,6a,6b,9,9,13a-heptamethyl-2,3,4,4a,5,6,6a,6b,7,8,8a,9,11,13,13a,13b,14,15b-octadecahydro-1H-chryseno[1,2-f]indazol-4a-yl)-4-methyl-1H-pyrazol-5-ol]
IC85 [1, 3]: 0.5 µg/mL (≈ 0.916 µM)
IC85 [2, 4]: 1 µg/mL (≈ 1.83 µM)

CC1(C)CC[C@]2(C(=O)O)CC[C@]3(C)C(=CCC4[C@@]5(C)Cc6c(n[nH]c6Br)C(C)(C)C5CC[C@]43C)C2C1 (stereo partly drawn) [H]
IC85 [1, 5]: 8 µg/mL (≈ 14.3 µM)
IC85 [2, 6]: > 8 µg/mL

CN1CCN(Cc2occc2C2=C3[C@@H]4CC(C)(C)CC[C@]4(C(=O)O)CC[C@@]3(C)[C@]3(C)CC[C@H]4C(C)(C)c5n[nH]c(N)c5C[C@]4(C)C3C2)CC1 (stereo partly drawn) [Compound 36, (4aS,6aS,6bR,8aR,13aR,15bS)-12-Amino-2,2,6a,6b,9,9,13a-heptamethyl-15-(2-((4-methylpiperazin-1-yl)methyl)furan-3-yl)-2,3,4,4a,5,6,6a,6b,7,8,8a,9,11,13,13a,13b,14,15b-octadecahydro-1H-chryseno[1,2-f]indazole-4a-carboxylic acid]
IC85 [1, 7]: > 1 µg/mL
IC85 [2, 8]: 2 µg/mL (≈ 2.98 µM)

CC1(C)CC[C@]2(C(=O)O)CC[C@]3(C)C(=C(c4ccc(N5CCC(N)CC5)nc4)CC4[C@@]5(C)Cc6c(n[nH]c6N)C(C)(C)C5CC[C@]43C)C2C1 (stereo partly drawn) [Compound 57, (4aS,6aS,6bR,13aR)-12-Amino-15-(6-(4-aminopiperidin-1-yl)pyridin-3-yl)-2,2,6a,6b,9,9,13a-heptamethyl-2,3,4,4a,5,6,6a,6b,7,8,8a,9,11,13,13a,13b,14,15b-octadecahydro-1H-chryseno[1,2-f]indazole-4a-carboxylic acid]
IC85 [1, 7]: > 2 µg/mL
IC85 [2, 8]: 1 µg/mL (≈ 1.49 µM)

CC1(C)CC[C@]2(C(=O)O)CC[C@]3(C)C(=C(c4ccoc4CN4CCCC4)CC4[C@@]5(C)Cc6c(n[nH]c6N)C(C)(C)C5CC[C@]43C)C2C1 (stereo partly drawn) [Compound 37, (4aS,6aS,6bR,13aR)-12-Amino-2,2,6a,6b,9,9,13a-heptamethyl-15-(2-(pyrrolidin-1-ylmethyl)furan-3-yl)-2,3,4,4a,5,6,6a,6b,7,8,8a,9,11,13,13a,13b,14,15b-octadecahydro-1H-chryseno[1,2-f]indazole-4a-carboxylic acid]
IC85 [1, 7]: > 1 µg/mL
IC85 [2, 8]: 1 µg/mL (≈ 1.56 µM)

CC1(C)CC[C@]2(C(=O)Sc3nnc(N)[nH]3)CC[C@]3(C)C(=C(c4cccnc4)CC4[C@@]5(C)Cc6c(n[nH]c6N)C(C)(C)[C@@H]5CC[C@]43C)[C@@H]2C1 (stereo partly drawn) [Compound 91, (4aS,6aS,6bR,8aR,13aR,15bS)-S-5-Amino-4H-1,2,4-triazol-3-yl 12-amino-2,2,6a,6b,9,9,13a-heptamethyl-15-(pyridin-3-yl)-2,3,4,4a,5,6,6a,6b,7,8,8a,9,11,13,13a,13b,14,15b-octadecahydro-1H-chryseno[1,2-f]indazole-4a-carbothioate]
IC85 ([1]; Table 5, concentration that reduces the area of the spreading biofilm by >= 85%, read-out: P. aeruginosa): 1 µg/mL (≈ 1.49 µM)
IC85 ([2]; Table 5, concentration that reduces the area of the spreading biofilm by >= 85%, read-out: E. coli): 1 µg/mL (≈ 1.49 µM)

CC1(C)CC[C@]2(C(=O)O)CC[C@]3(C)C(=C(c4ccoc4)CC4[C@@]5(C)Cc6c(n[nH]c6N)C(C)(C)[C@@H]5CC[C@]43C)[C@@H]2C1 (stereo partly drawn) [Compound 26, (4aS,6aS,6bR,8aR,13aR,15bS)-12-Amino-15-(furan-3-yl)-2,2,6a,6b,9,9,13a-heptamethyl-2,3,4,4a,5,6,6a,6b,7,8,8a,9,11,13,13a,13b,14,15b-octadecahydro-1H-chryseno[1,2-f]indazole-4a-carboxylic acid]
IC85 [1, 7]: 0.25 µg/mL (≈ 0.447 µM)
IC85 [2, 8]: 1 µg/mL (≈ 1.79 µM)

CN1CCN(c2ccc(C3=C4C5CC(C)(C)CC[C@]5(C(=O)O)CC[C@@]4(C)[C@]4(C)CCC5C(C)(C)c6n[nH]c(N)c6C[C@]5(C)C4C3)cn2)CC1 (stereo partly drawn) [Compound 56, (4aS,6aS,6bR,13aR)-12-Amino-2,2,6a,6b,9,9,13a-heptamethyl-15-(6-(4-methylpiperazin-1-yl)pyridin-3-yl)-2,3,4,4a,5,6,6a,6b,7,8,8a,9,11,13,13a,13b,14,15b-octadecahydro-1H-chryseno[1,2-f]indazole-4a-carboxylic acid]
IC85 [1, 7]: 1 µg/mL (≈ 1.49 µM)
IC85 [2, 8]: 2 µg/mL (≈ 2.99 µM)

CC1(C)CC[C@]2(C(=O)Nc3cc(N)n[nH]3)CC[C@]3(C)C(=CCC4[C@@]5(C)Cc6c(n[nH]c6N)C(C)(C)C5CC[C@]43C)C2C1 (stereo partly drawn) [Compound 69, (4aS,6aS,6bR,13aR)-12-amino-N-(3-amino-1H-pyrazol-5-yl)-2,2,6a,6b,9,9,13a-heptamethyl-2,3,4,4a,5,6,6a,6b,7,8,8a,9,11,13,13a,13b,14,15b-octadecahydro-1H-chryseno[1,2-f]indazole-4a-carboxamide]
IC85 [1, 3]: 1 µg/mL (≈ 1.74 µM)
IC85 [2, 4]: 1 µg/mL (≈ 1.74 µM)

CC1(C)CC[C@]2(C(=O)O)CC[C@]3(C)C(=C(c4cccc5[nH]ccc45)CC4[C@@]5(C)Cc6c(n[nH]c6N)C(C)(C)C5CC[C@]43C)C2C1 (stereo partly drawn) [Compound 48, (4aS,6aS,6bR,13aR)-12-Amino-15-(1H-indol-4-yl)-2,2,6a,6b,9,9,13a-heptamethyl-2,3,4,4a,5,6,6a,6b,7,8,8a,9,11,13,13a,13b,14,15b-octadecahydro-1H-chryseno[1,2-f]indazole-4a-carboxylic acid]
IC85 [1, 7]: 0.5 µg/mL (≈ 0.821 µM)
IC85 [2, 8]: 1 µg/mL (≈ 1.64 µM)

CC1(C)CC[C@]2(C(=O)O)CC[C@]3(C)C(=CC[C@@H]4[C@@]5(C)Cc6c(noc6N)C(C)(C)[C@@H]5CC[C@]43C)[C@@H]2C1 [K]
IC85 [1, 5]: > 8 µg/mL
IC85 [2, 6]: > 8 µg/mL
